Reference: patent US20260285853A1, “COMPOUNDS AND METHODS FOR MODULATING SPLICING” (REMIX THERAPEUTICS INC., priority 2023, published 2026)

Experiments:
Assay in all cases: Gene panel canonical junction qPCR assay, decrease in CJ mRNA, Table 3
Type in all cases: cell-based
SMN2 mRNA = tested on: SMN2 mRNA
In short: (§1)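 Cells: A673 or K562; 24 h compound exposure, 37 °C, 5% CO2; 11-pt 3-fold series from 10 uM final; DMSO ≤0.25%. Lysate → cDNA → qPCR with junction-spanning primers/probe for CJ transcript. ΔCt vs housekeeper, ΔΔCt vs DMSO, 2^(−ΔΔCt), % response, 4PL → IC50.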

HTT mRNA = tested on: HTT mRNA
In short: as §1

MYB mRNA = tested on: MYB mRNA
In short: as §1

[1] = decrease in canonical junction (CJ) mRNA, gene panel qPCR, Table 3
[2] = decrease in CJ mRNA levels, canonical junction qPCR, gene panel

IC50 (SMN2 mRNA; [1]) [nM]	IC50 (HTT mRNA; [1]) [nM]	IC50 (MYB mRNA; [1]) [nM]	IC50 (SMN2 mRNA; [2]) [nM]	IC50 (HTT mRNA; [2]) [nM]	IC50 (MYB mRNA; [2]) [nM]	SMILES
< 100	< 100	< 100	–	–	–	CNC1(C)CCN(c2ccc(C(=O)Nc3cn4cc(C)nc4c(OC)n3)c3nn(C)cc23)CC1 [Compound 197, N-(8-methoxy-2-methylimidazo[1,2-a]pyrazin-6-yl)-2-methyl-4-(4-methyl-4-(methylamino)piperidin-1-yl)-2H-indazole-7-carboxamide]
1000 to 10000	> 10000	> 10000	–	–	–	COc1cc(N2CCNCC2)c2cn(C)nc2c1C(=O)Nc1cc(F)c2nc(C)cn2c1 [Compound 250, N-(8-fluoro-2-methyl-imidazo[1,2-a]pyridin-6-yl)-6-methoxy-2-methyl-4-piperazin-1-yl-indazole-7-carboxamide]
< 100	100 to 1000	100 to 1000	–	–	–	CCNC1CCN(c2ccc(C(=O)Nc3cc(F)c4nc(C)oc4c3)c3nn(C)cc23)CC1 [Compound 200, 4-(4-(ethylamino)piperidin-1-yl)-N-(4-fluoro-2-methylbenzo[d]-oxazol-6-yl)-2-methyl-2H-indazole-7-carboxamide]
100 to 1000	1000 to 10000	100 to 1000	–	–	–	Cc1cn2cc(NC(=O)c3ccc(N4C[C@@H](C)N[C@@H](C)C4)c4[nH]cnc34)cc(F)c2n1 [Compound 220, 7-[(3R,5S)-3,5-dimethylpiperazin-1-yl]-N-(8-fluoro-2-methyl-imidazo[1,2-a]pyridin-6-yl)-1H-1,3-benzodiazole-4-carboxamide]
< 100	< 100	< 100	–	–	–	CNC1(C)CCN(c2cc(F)c(C(=O)Nc3cc(F)c4nc(C)cn4c3)c3nn(C)cc23)CC1 [Compound 179, 6-fluoro-N-(8-fluoro-2-methyl-imidazo[1,2-a]pyridin-6-yl)-2-methyl-4-[4-methyl-4-(methylamino)-1-piperidyl]indazole-7-carboxamide]
< 100	100 to 1000	100 to 1000	–	–	–	CN[C@H]1C[C@@H](C)N(c2ccc(C(=O)Nc3cc(F)c4nc(C)cn4c3)c3nn(C)cc23)C1 (single isomer, unassigned) [Compound 128]
< 100	100 to 1000	100 to 1000	–	–	–	Cc1cn2cc(NC(=O)c3ccc(N4C[C@@H](C)N[C@@H](C)C4)c4nn(C)nc34)cc(F)c2n1 [Compound 252, 7-((3S,5R)-3,5-dimethyl-piperazin-1-yl)-N-(8-fluoro-2-methyl-imidazo[1,2-a]pyridin-6-yl)-2-methyl-2H-benzo[d][1,2,3]triazole-4-carboxamide 2,2,2-trifluoroacetate]
< 100	100 to 1000	< 100	–	–	–	COc1nc2c(C(=O)Nc3cc(F)c4nc(C)cn4c3)ccc(N3CCC(N)CC3)c2s1 [Compound 208, 7-(4-aminopiperidin-1-yl)-N-(8-fluoro-2-methylimidazo[1,2-a]pyridin-6-yl)-2-methoxybenzo[d]thiazole-4-carboxamide]
1000 to 10000	> 10000	> 10000	–	–	–	Cc1cn2cc(NC(=O)c3ccc(N4CCNCC4=O)c4[nH]cnc34)cc(F)c2n1 [Compound 257, N-(8-fluoro-2-methyl-imidazo[1,2-a]-pyridin-6-yl)-7-(2-oxopiperazin-1-yl)-1H-benzimidazole-4-carboxamide]
< 100	> 10000	100 to 1000	–	–	–	Cc1cn2cc(NC(=O)c3ccc(N4C[C@H](C)N[C@@H](C)C4)c4[nH]cnc34)cc(F)c2n1 [Compound 221, 7-[(3S,5S)-3,5-dimethylpiperazin-1-yl]-N-(8-fluoro-2-methylimidazo[1,2-a]pyridin-6-yl)-1H-1,3-benzodiazole-4-carboxamide]
< 100	100 to 1000	< 100	–	–	–	Cc1cn2cc(NC(=O)c3ccc(N4CCC(NC5CC5)CC4)c4cc(C)nn34)cc(F)c2n1 [Compound 209, 4-[4-(cyclopropylamino)-1-piperidyl]-N-(8-fluoro-2-methyl-imidazo[1,2-a]pyridin-6-yl)-2-methyl-pyrazolo[1,5-a]pyridine-7-carboxamide]
< 100	100 to 1000	< 100	–	–	–	Cc1cn2cc(NC(=O)c3ccc(N4CCC(NC5CC5)CC4)n4cc(C)nc34)cc(F)c2n1 [Compound 210, 5-(4-(cyclopropylamino)piperidin-1-yl)-N-(8-fluoro-2-methylimidazo[1,2-a]pyridin-6-yl)-2-methylimidazo[1,2-a]-pyridine-8-carboxamide]
< 100	> 10000	< 100	–	–	–	COCCN[C@@H]1CCN(c2cc(O)c(C(=O)Nc3cc(F)c4nc(C)cn4c3)c3nn(C)cc23)C1 [Compound 285, N-(8-fluoro-2-methyl-imidazo[1,2-a]pyridin-6-yl)-6-hydroxy-4-[(3R)-3-(2-methoxyethylamino)pyrrolidin-1-yl]-2-methyl-indazole-7-carboxamide]
< 100	1000 to 10000	< 100	–	–	–	CCNC1CCN(c2ccc(C(=O)Nc3cc(F)c4nn(C)cc4c3)c3nn(C)cc23)CC1 [Compound 182, 4-(4-(ethylamino)piperidin-1-yl)-N-(7-fluoro-2-methyl-2H-indazol-5-yl)-2-methyl-2H-indazole-7-carboxamide]
< 100	1000 to 10000	< 100	–	–	–	Cc1cn2cc(NC(=O)c3ccc(N4CCC(NC5CC5(C)C)CC4)c4cn(C)nc34)cc(F)c2n1 (stereo not drawn) [Compound 205, 4-(4-((2,2-dimethylcyclopropyl)amino)piperidin-1-yl)-N-(8-fluoro-2-methylimidazo[1,2-a]pyridin-6-yl)-2-methyl-2H-indazole-7-carboxamide]
> 10000	> 10000	> 10000	–	–	–	CCNC1CCN(c2ccc(C(=O)Nc3cc(F)c4nc(C)c(C)n4c3)c3nn(C)cc23)CC1 [Compound 188, 4-[4-(ethylamino)-1-piperidyl]-N-(8-fluoro-2,3-dimethyl-imidazo[1,2-a]pyridin-6-yl)-2-methyl-indazole-7-carboxamide]
< 100	1000 to 10000	100 to 1000	–	–	–	Cc1cn2cc(NC(=O)c3ccc(N4CCNC(C(F)F)C4)c4cn(C)nc34)cc(F)c2n1 (stereo not drawn) [Compound 249, 4-[3-(difluoromethyl)piperazin-1-yl]-N-(8-fluoro-2-methylimidazo[1,2-a]pyridin-6-yl)-2-methyl-indazole-7-carboxamide]
1000 to 10000	> 10000	> 10000	–	–	–	CCNC1CCN(c2ccc(C(=O)Nc3cc4cn(C)nc4cc3OC)c3[nH]ccc23)CC1 [Compound 178, 4-[4-(ethylamino)-1-piperidyl]-N-(6-methoxy-2-methyl-indazol-5-yl)-1H-indole-7-carboxamide]
–	–	–	< 100	100 to 1000	< 100	COc1c(NC(=O)c2c(F)cc(N3CCNCC3)c3cn[nH]c23)cn2cc(C)nc2c1F [Compound 607, 6-fluoro-N-(8-fluoro-7-methoxy-2-methyl-imidazo[1,2-a]pyridin-6-yl)-4-piperazin-1-yl-1H-indazole-7-carboxamide]
< 100	1000 to 10000	100 to 1000	–	–	–	CCNC1CCN(c2ccc(C(=O)Nc3ccc4nc(C)cn4c3)c3nn(C)cc23)CC1 [Compound 176, 4-[4-(ethylamino)-1-piperidyl]-2-methyl-N-(2-methylimidazo[1,2-a]pyridin-6-yl)-indazole-7-carboxamide]
100 to 1000	> 10000	1000 to 10000	–	–	–	Cc1cn2cc(NC(=O)c3ccc(N4CCNC(C(F)(F)F)C4)c4cn(C)nc34)cc(F)c2n1 (stereo not drawn) [Compound 248, N-(8-fluoro-2-methyl-imidazo[1,2-a]-pyridin-6-yl)-2-methyl-4-[3-(trifluoro-methyl)piperazin-1-yl]indazole-7-carboxamide]
1000 to 10000	> 10000	> 10000	–	–	–	Cc1cn2cc(NC(=O)c3ccc(N4C[C@H](C)N[C@@H](C)C4)c4[nH]nnc34)cc(F)c2n1 [Compound 242, 7-[(3S,5S)-3,5-dimethylpiperazin-1-yl]-N-(8-fluoro-2-methyl-imidazo[1,2-a]pyridin-6-yl)-1H-benzotriazole-4-carboxamide]
> 10000	> 10000	> 10000	–	–	–	CCNC1CCN(c2ccc(C(=O)Nc3cc4cn(C)nc4cc3O)c3[nH]ccc23)CC1 [Compound 190, 4-[4-(ethylamino)-1-piperidyl]-N-(6-hydroxy-2-methyl-indazol-5-yl)-1H-indole-7-carboxamide]
< 100	> 10000	100 to 1000	–	–	–	CCNC1CCN(c2ccc(C(=O)Nc3cc(F)c4nc(CO)cn4c3)c3nn(C)cc23)CC1 [Compound 193, 4-[4-(ethylamino)-1-piperidyl]-N-[8-fluoro-2-(hydroxymethyl)imidazo[1,2-a]pyridin-6-yl]-2-methyl-indazole-7-carboxamide]
< 100	100 to 1000	100 to 1000	–	–	–	CN[C@H]1CCN(c2ccc(C(=O)Nc3cc(F)c4nc(C)cn4c3)c3nn(C)nc23)C1 [Compound 163, (S)-N-(8-fluoro-2-methylimidazo-[1,2-a]pyridin-6-yl)-2-methyl-7-(3-(methylamino)pyrrolidin-1-yl)-2H-benzo[d]-[1,2,3]triazole-4-carboxamide]
< 100	> 10000	< 100	–	–	–	Cc1cn2cc(NC(=O)c3c(O)cc(N4CC[C@@H](NC5CC5)C4)c4cn(C)nc34)cc(F)c2n1 [Compound 288, 4-[(3R)-3-(cyclopropylamino)-pyr-rolidin-1-yl]-N-(8-fluoro-2-methyl-imidazo[1,2-a]pyridin-6-yl)-6-hydroxy-2-methyl-indazole-7-carboxamide]
< 100	1000 to 10000	< 100	–	–	–	Cn1cc2cc(NC(=O)c3c(O)cc(N4CC[C@@H](NC5CC5)C4)c4cn(C)nc34)cc(F)c2n1 [Compound 291, 4-[(3R)-3-(cyclopropylamino)pyrrolidin-1-yl]-N-(7-fluoro-2-methyl-indazol-5-yl)-6-hydroxy-2-methyl-indazole-7-carboxamide]
